{"source": "patent US20020025918A1", "about": "“Methods of using helical peptides in plants” (priority 1987, published 2002)", "key": {"[1]": {"test_system": "S. auerus", "assay": "Synergy of lytic peptide with antibiotics", "settings": "Manitou-1 0 μM"}, "[2]": {"test_system": "E. coli", "assay": "Synergy of lytic peptide with antibiotics", "settings": "Manitou-1 0 μM"}, "[3]": {"test_system": "S. aureus", "assay": "MBC and MIC susceptibility test", "assay_type": "cell-based"}, "[4]": {"test_system": "P. aeruginosa", "assay": "MBC and MIC susceptibility test", "assay_type": "cell-based", "settings": "for MBC: Table III, P. aeuriginosa (−)"}, "[5]": {"test_system": "E. coli", "assay": "MBC and MIC susceptibility test", "assay_type": "cell-based", "settings": "for MBC: Table III"}, "[6]": {"test_system": "EL-4 lymphoma cells", "assay": "EL-4 cell killing, trypan blue exclusion", "settings": "one hour, 37° C."}}, "note": "Residues, ends and D or L forms follow the SMILES beside them.", "data": [{"compound": "[H]/N=C(/N)N[C@H]1[C@H](O)[C@@H](O)[C@H](O[C@@H]2O[C@@H](C)[C@](O)(C=O)[C@H]2O[C@@H]2O[C@@H](CO)[C@H](O)[C@@H](O)[C@@H]2NC)[C@@H](N/C(N)=N\\[H])[C@@H]1O", "note": "[Streptomycin, reference compound]", "values": [{"measurement": "% Cell Death In S. auerus", "setting": "[1]; antibiotic 0.5 μM alone", "value": 0, "unit": "%"}, {"measurement": "% Cell Death In S. auerus", "setting": "[1]; antibiotic 5.0 μM alone", "value": 87, "unit": "%"}, {"measurement": "% Cell Death In E. coli", "setting": "[2]; antibiotic 0.5 μM alone", "value": 0, "unit": "%"}, {"measurement": "% Cell Death In E. coli", "setting": "[2]; antibiotic 5.0 μM alone", "value": 87, "unit": "%"}]}, {"compound": "CC[C@H](C)[C@H](NC(=O)CNC(=O)[C@H](CC(N)=O)NC(=O)[C@H](CCCNC(=N)N)NC(=O)[C@@H](NC(=O)[C@H](CC(N)=O)NC(=O)[C@H](CCCNC(=N)N)NC(=O)CNC(=O)[C@@H](NC(=O)[C@H](CCCCN)NC(=O)[C@H](CCC(=O)O)NC(=O)[C@@H](NC(=O)[C@H](CCCCN)NC(=O)[C@H](CCCCN)NC(=O)[C@H](Cc1ccccc1)NC(=O)[C@@H](NC(=O)[C@H](CCCCN)NC(=O)[C@H](Cc1c[nH]c2ccccc12)NC(=O)[C@H](CCCCN)NC(=O)[C@@H]1CCCN1C(=O)[C@@H](N)CCSC)C(C)C)[C@@H](C)CC)C(C)C)[C@@H](C)CC)C(=O)N[C@H](C(=O)N[C@@H](CCCCN)C(=O)N[C@@H](C)C(=O)NCC(=O)N1CCC[C@H]1C(=O)N[C@@H](C)C(=O)N[C@H](C(=O)N[C@@H](C)C(=O)N[C@H](C(=O)N[C@@H](CC(C)C)C(=O)NCC(=O)N[C@@H](CCC(=O)O)C(=O)N[C@@H](C)C(=O)N[C@@H](CCCCN)C(=O)N[C@@H](C)C(=O)N[C@@H](CC(C)C)C(=O)NCC(N)=O)C(C)C)[C@@H](C)CC)C(C)C", "note": "[SB-37] (H-MPKWKVFKKIEKVGRNIRNGIVKAGPAIAVLGEAKALG-NH2)", "values": [{"measurement": "MBC", "setting": "[3]; Table III, S. aureus (+)", "value": 64, "unit": "µM"}, {"measurement": "MBC", "setting": "[4]", "value": 3.5, "unit": "µM"}, {"measurement": "MBC", "setting": "[5]", "value": 2.0, "unit": "µM"}]}, {"compound": "CN(C)[C@@H]1C(O)=C(C(N)=O)C(=O)[C@@]2(O)C(O)=C3C(=O)c4c(O)cccc4[C@@](C)(O)[C@H]3C[C@@H]12", "note": "[Tetracycline, reference compound]", "values": [{"measurement": "% Cell Death In S. auerus", "setting": "[1]; antibiotic 0.5 μM alone", "value": 0, "unit": "%"}, {"measurement": "% Cell Death In S. auerus", "setting": "[1]; antibiotic 5.0 μM alone", "value": 35, "unit": "%"}, {"measurement": "% Cell Death In E. coli", "setting": "[2]; antibiotic 0.5 μM alone", "value": 0, "unit": "%"}, {"measurement": "% Cell Death In E. coli", "setting": "[2]; antibiotic 5.0 μM alone", "value": 58, "unit": "%"}]}, {"compound": "CC(C)C[C@H](NC(=O)[C@H](CCCCN)NC(=O)[C@H](C)NC(=O)[C@H](CC(C)C)NC(=O)[C@H](CCCCN)NC(=O)[C@H](CCCCN)NC(=O)[C@H](C)NC(=O)[C@H](CC(C)C)NC(=O)[C@H](CCCCN)NC(=O)[C@H](C)NC(=O)[C@H](CC(C)C)NC(=O)[C@H](CCCCN)NC(=O)[C@H](CCCCN)NC(=O)[C@@H](N)CC(C)C)C(=O)N[C@@H](C)C(=O)N[C@@H](CCCCN)C(=O)N[C@@H](CCCCN)C(=O)N[C@@H](CC(C)C)C(=O)N[C@@H](C)C(=O)N[C@@H](CCCCN)C(=O)N[C@@H](CCCCN)C(N)=O", "note": "[Anubis-8]", "values": [{"measurement": "antibacterial result of treatment (Table I; MBC)", "setting": "[3]; S. auerus (+)", "value": 8, "unit": "µM"}, {"measurement": "antibacterial result of treatment (Table I; MBC)", "setting": "[4]; P. aeruginosa (−)", "value": 16, "unit": "µM"}, {"measurement": "antibacterial result of treatment (Table I; MBC)", "setting": "[5]", "value": 16, "unit": "µM"}]}, {"compound": "CC(C)C[C@H](NC(=O)[C@H](C)NC(=O)[C@H](CCCCN)NC(=O)[C@H](CCCCN)NC(=O)[C@H](CC(C)C)NC(=O)[C@H](C)NC(=O)[C@H](CCCCN)NC(=O)[C@H](CCCCN)NC(=O)[C@H](CC(C)C)NC(=O)[C@H](CCCCN)NC(=O)[C@H](CCCCN)NC(=O)[C@H](CC(C)C)NC(=O)[C@H](C)NC(=O)[C@H](CCCCN)NC(=O)[C@H](CCCCN)NC(=O)[C@H](CC(C)C)NC(=O)[C@H](C)NC(=O)[C@H](CCCCN)NC(=O)[C@H](CC(C)C)NC(=O)[C@H](C)NC(=O)[C@H](CC(C)C)NC(=O)[C@H](C)NC(=O)[C@@H](N)Cc1ccccc1)C(N)=O", "note": "[Hecate-1] (H-FALALKALKKALKKLKKALKKAL-NH2)", "values": [{"measurement": "MBC", "setting": "[4]", "value": 10.0, "unit": "µM"}, {"measurement": "MBC", "setting": "[5]", "value": 4.0, "unit": "µM"}]}, {"compound": "CC(C)C[C@H](NC(=O)[C@H](C)NC(=O)[C@H](CC(C)C)NC(=O)[C@H](C)NC(=O)[C@H](CC(C)C)NC(=O)[C@H](CCCCN)NC(=O)[C@H](C)NC(=O)[C@H](CC(C)C)NC(=O)[C@H](CCCCN)NC(=O)[C@H](CCCCN)NC(=O)[C@H](C)NC(=O)[C@H](CC(C)C)NC(=O)[C@H](CCCCN)NC(=O)[C@H](CCCCN)NC(=O)[C@H](CC(C)C)NC(=O)[C@H](CCCCN)NC(=O)[C@H](CCCCN)NC(=O)[C@H](C)NC(=O)[C@H](CC(C)C)NC(=O)[C@H](CCCCN)NC(=O)[C@H](CCCCN)NC(=O)[C@H](C)NC(=O)[C@@H](N)Cc1ccccc1)C(N)=O", "note": "[Shiva-10]", "values": [{"measurement": "MBC", "setting": "[4]", "value": 2.0, "unit": "µM"}, {"measurement": "MBC", "setting": "[5]", "value": 1.0, "unit": "µM"}]}, {"compound": "CC[C@H](C)[C@H](NC(=O)CNC(=O)[C@H](CCC(N)=O)NC(=O)[C@H](CCCCN)NC(=O)[C@@H](NC(=O)[C@H](CCC(N)=O)NC(=O)[C@H](CCCCN)NC(=O)CNC(=O)[C@@H](NC(=O)[C@H](CCCNC(=N)N)NC(=O)[C@H](CC(=O)O)NC(=O)[C@@H](NC(=O)[C@H](CCCNC(=N)N)NC(=O)[C@H](CCCNC(=N)N)NC(=O)[C@H](Cc1ccccc1)NC(=O)[C@H](CC(C)C)NC(=O)[C@H](CCCNC(=N)N)NC(=O)[C@H](Cc1c[nH]c2ccccc12)NC(=O)[C@H](CCCNC(=N)N)NC(=O)[C@@H]1CCCN1C(=O)[C@@H](N)CCSC)[C@@H](C)CC)C(C)C)[C@@H](C)CC)C(=O)N[C@@H](CC(C)C)C(=O)N[C@@H](CCCNC(=N)N)C(=O)N[C@@H](C)C(=O)NCC(=O)N1CCC[C@H]1C(=O)N[C@@H](C)C(=O)N[C@H](C(=O)N[C@@H](C)C(=O)N[C@@H](CC(C)C)C(=O)N[C@H](C(=O)NCC(=O)N[C@@H](CC(=O)O)C(=O)N[C@@H](C)C(=O)N[C@@H](CCCNC(=N)N)C(=O)N[C@@H](C)C(=O)N[C@H](C(=O)NCC(N)=O)C(C)C)C(C)C)[C@@H](C)CC", "note": "[Shiva-1] (H-MPRWRLFRRIDRVGKQIKQGILRAGPAIALVGDARAVG-NH2; N-terminus and C-terminus assumed)", "values": [{"measurement": "% EL-4 Cells Killed", "setting": "[6]; 10 μM peptide", "value": 2, "unit": "%"}, {"measurement": "% EL-4 Cells Killed", "setting": "[6]; 25 μM peptide", "value": 18, "unit": "%"}, {"measurement": "% EL-4 Cells Killed", "setting": "[6]; 50 μM peptide", "value": 42, "unit": "%"}, {"measurement": "% EL-4 Cells Killed", "setting": "[6]; 100 μM peptide", "value": 87, "unit": "%"}]}]}
